Test results from ChEMBL document CHEMBL5625257, “Design, synthesis, and evaluation of dual EGFR/AURKB inhibitors as anticancer agents for non-small cell lung cancer” (Bioorg Med Chem Lett, 2024).

Key:
[1] = target: T1, Aurora kinase B/Inner centromere protein (Homo sapiens, UniProt Q96GD4)
Description: Inhibition of AURKB/INCENP (unknown origin) in the presence of ATP at Km concentration

[2] = target: T2, Aurora kinase B (Homo sapiens, UniProt Q96GD4); assay: Inhibition of AURKB (unknown origin) by nanoBRET assay
[3] = target: T1, Aurora kinase B/Inner centromere protein; remark: listed apart in the source
Description: Inhibition of AURKB/INCENP (unknown origin) preincubated for 60 mins in the presence of ATP at Km concentration

[4] = test system: A549; assay: Anticancer activity against human A549 cells harboring KRAS mutant assessed as inhibition of cell growth
[5] = target: T3, Epidermal growth factor receptor (Homo sapiens, UniProt P00533, L858R)
Description: Inhibition of EGFR L858R mutant phosphorylation (unknown origin) in the presence of ATP

[6] = target: T3, Epidermal growth factor receptor; remark: listed apart in the source
Description: Inhibition of EGFR L858R mutant phosphorylation (unknown origin) preincubated for 60 mins in the presence of ATP

[7] = target: T3, Epidermal growth factor receptor; remark: listed apart in the source
Description: Binding affinity to human partial length EGFR (R669 to V1011 residues) L858R mutant expressed in bacterial expression system assessed as dissociation constant by DiscoverX kinomescan assay

[8] = target: Epidermal growth factor receptor (Homo sapiens, UniProt P00533)
Description: Binding affinity to wild type human EGFR partial length (R669 to V1011 residues) expressed in bacterial expression system assessed as dissociation constant by DiscoverX kinomescan assay

[9] = test system: NCI-H1975; assay: cells; conditions: Homo sapiens
Description: Anticancer activity against TKI resistant human NCI-H1975 cells harboring EGFR L858R/T790M mutant assessed as inhibition of cell growth

[10] = target: T2, Aurora kinase B
Description: Binding affinity to human partial length AURKB (D25 to A303 residues) expressed in mammalian system assessed as dissociation constant by DiscoverX kinomescan assay

T3 sequence (P00533 25-1210 L858R limits assumed): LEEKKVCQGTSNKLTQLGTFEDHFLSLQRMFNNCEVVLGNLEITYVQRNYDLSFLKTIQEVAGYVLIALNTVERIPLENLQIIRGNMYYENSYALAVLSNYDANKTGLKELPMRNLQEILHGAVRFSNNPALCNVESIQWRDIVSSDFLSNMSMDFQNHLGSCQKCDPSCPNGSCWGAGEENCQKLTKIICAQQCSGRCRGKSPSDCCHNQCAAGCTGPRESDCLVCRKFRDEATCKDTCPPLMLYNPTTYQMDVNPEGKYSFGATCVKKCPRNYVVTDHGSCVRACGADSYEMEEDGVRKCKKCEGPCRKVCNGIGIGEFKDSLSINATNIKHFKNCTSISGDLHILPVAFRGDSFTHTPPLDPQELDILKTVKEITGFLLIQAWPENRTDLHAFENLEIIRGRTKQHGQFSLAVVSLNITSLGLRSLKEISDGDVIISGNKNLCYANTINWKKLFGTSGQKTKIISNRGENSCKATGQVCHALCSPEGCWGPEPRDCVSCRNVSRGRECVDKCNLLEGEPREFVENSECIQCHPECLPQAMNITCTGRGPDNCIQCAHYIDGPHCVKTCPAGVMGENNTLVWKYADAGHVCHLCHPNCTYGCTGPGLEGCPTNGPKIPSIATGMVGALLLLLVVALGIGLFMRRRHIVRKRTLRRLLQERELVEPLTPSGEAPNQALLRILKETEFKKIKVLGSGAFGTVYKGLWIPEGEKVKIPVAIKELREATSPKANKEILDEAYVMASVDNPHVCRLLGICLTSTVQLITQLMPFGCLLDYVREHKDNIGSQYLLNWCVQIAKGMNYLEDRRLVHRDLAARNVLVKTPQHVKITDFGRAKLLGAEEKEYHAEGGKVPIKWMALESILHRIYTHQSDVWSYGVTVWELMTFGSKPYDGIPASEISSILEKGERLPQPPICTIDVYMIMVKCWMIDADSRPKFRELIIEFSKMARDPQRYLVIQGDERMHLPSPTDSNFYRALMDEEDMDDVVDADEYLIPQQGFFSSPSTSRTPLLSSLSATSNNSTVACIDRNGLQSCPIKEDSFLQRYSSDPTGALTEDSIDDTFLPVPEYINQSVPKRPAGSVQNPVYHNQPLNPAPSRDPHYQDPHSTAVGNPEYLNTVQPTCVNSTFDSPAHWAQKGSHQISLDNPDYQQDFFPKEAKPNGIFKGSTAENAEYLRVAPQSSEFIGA
T1 sequence (Q96GD4 whole entry): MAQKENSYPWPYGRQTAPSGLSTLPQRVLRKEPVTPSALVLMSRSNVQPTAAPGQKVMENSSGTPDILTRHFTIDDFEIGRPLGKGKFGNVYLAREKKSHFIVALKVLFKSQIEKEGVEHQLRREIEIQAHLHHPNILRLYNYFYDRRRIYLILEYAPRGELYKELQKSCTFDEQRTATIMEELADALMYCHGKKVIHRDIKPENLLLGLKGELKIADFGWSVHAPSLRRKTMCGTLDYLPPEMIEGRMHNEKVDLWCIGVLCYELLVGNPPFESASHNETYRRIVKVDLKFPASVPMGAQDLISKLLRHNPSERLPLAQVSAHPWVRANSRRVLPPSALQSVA
T1 sequence (Q9NQS7 whole entry, further chain): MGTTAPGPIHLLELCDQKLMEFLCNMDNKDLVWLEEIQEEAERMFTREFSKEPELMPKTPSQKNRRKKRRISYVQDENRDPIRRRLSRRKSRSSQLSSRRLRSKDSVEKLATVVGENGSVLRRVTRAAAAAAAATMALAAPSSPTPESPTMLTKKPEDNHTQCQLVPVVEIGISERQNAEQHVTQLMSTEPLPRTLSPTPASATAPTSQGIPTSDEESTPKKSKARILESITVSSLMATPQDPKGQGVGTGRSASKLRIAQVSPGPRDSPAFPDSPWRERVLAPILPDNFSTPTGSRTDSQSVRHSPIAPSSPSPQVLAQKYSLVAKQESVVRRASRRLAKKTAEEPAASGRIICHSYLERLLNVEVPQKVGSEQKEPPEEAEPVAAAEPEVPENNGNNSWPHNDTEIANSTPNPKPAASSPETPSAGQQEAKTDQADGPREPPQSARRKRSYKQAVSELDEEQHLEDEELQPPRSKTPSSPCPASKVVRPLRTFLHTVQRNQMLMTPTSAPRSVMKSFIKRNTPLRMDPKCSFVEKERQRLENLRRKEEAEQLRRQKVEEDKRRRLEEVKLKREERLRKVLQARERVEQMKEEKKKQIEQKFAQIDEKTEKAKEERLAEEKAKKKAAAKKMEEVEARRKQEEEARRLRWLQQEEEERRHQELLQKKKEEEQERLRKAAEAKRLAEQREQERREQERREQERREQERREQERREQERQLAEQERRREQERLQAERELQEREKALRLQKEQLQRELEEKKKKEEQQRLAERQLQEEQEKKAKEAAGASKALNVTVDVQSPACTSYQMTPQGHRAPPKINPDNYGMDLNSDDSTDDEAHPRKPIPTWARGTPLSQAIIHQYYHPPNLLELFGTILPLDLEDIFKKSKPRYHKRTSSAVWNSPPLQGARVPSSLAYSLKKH
T2 sequence (Q96GD4 whole entry): as the sequence (Q96GD4 whole entry) above
Sequence of Epidermal growth factor receptor (Homo sapiens, UniProt P00533) (P00533 whole entry): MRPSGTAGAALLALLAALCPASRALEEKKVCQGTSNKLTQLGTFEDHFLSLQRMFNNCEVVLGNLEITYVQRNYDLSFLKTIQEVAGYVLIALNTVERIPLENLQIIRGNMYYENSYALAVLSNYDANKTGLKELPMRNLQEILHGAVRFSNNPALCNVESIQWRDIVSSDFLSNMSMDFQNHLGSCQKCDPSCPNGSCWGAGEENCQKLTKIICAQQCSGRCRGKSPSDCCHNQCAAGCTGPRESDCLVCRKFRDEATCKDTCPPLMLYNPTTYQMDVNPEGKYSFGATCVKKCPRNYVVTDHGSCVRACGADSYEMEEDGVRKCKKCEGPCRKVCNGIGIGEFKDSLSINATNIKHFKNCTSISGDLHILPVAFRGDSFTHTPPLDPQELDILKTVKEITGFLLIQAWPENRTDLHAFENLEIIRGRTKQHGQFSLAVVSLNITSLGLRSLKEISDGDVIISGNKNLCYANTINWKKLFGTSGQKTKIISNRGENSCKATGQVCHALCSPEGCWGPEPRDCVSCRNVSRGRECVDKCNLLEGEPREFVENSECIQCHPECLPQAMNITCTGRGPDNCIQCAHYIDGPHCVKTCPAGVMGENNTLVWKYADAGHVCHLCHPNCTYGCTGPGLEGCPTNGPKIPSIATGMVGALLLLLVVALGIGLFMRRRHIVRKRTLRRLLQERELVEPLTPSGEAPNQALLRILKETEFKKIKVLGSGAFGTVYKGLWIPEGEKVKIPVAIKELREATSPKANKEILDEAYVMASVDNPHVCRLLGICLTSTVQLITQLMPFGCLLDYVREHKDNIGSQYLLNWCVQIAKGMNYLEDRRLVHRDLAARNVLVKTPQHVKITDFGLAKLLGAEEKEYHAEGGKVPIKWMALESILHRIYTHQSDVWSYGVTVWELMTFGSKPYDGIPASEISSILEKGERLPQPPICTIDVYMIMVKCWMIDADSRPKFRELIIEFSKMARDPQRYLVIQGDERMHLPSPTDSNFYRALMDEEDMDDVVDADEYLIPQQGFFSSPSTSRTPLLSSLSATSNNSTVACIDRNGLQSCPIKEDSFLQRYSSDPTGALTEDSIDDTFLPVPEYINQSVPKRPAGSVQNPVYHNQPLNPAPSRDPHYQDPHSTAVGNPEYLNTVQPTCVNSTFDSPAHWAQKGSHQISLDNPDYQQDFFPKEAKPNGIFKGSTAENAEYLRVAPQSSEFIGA

Structure (SMILES) | IC50 [1] | IC50 [2] | IC50 [3] | IC50 [4] | IC50 [5] | IC50 [6] | Kd [7] | Kd [8] | IC50 [9] | Kd [10]
COc1cccc2c1C(=O)c1c(O)c3c(c(O)c1C2=O)C[C@@](O)(C(=O)CO)C[C@@H]3O[C@H]1C[C@H](N)[C@H](O)[C@H](C)O1 [DOXORUBICIN] |  |  |  | 59 nM |  |  |  |  |  | 
COc1cc2c(Nc3ccc(NC(=O)c4ccccc4)cc3)ncnc2cc1OCCCN1CCOCC1 |  |  |  |  |  |  | 880 nM | 220 nM |  | 
Cn1nccc1-c1cc2c(Nc3ccc(OCc4ccccc4)cc3)ncnc2[nH]1 | 4000 nM |  | 1100 nM | 2920 nM | 70 nM | 69 nM | 210 nM |  | > 50000 nM | > 30000 nM

Continued, in another order:

IC50 [1] | IC50 [2] | IC50 [3] | IC50 [4] | Structure (SMILES) | IC50 [5] | IC50 [6] | Kd [7] | Kd [8] | IC50 [9] | Kd [10]
800 nM | 14700 nM | 50 nM |  | O=C(Nc1ccccc1)c1ccc(Nc2ncnc3[nH]ccc23)cc1 |  |  |  |  |  | 
2770 nM |  | 3800 nM | 20400 nM | Brc1cccc(Nc2ncnc3[nH]ccc23)c1 | 3 nM | 3 nM |  |  |  | 
